Data on 14 compounds can be found in patent publication US20150329558A1, “FUSED HETEROCYCLIC COMPOUNDS AS ION CHANNEL MODULATORS” (Gilead Sciences, Inc., priority 2011, published 2015).

Where two headings read alike, the source gives them in different places.

In series [1] the target is wild-type human cardiac sodium channel, hNav1.5 (peak INa) (Homo sapiens, UniProt Q14524). In words: Peak INa screening assay (tonic and use-dependent block). The series is classed as cell-based. The procedure, abridged: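 Whole-cell automated patch clamp, HEK293 stably expressing hNav1.5 alpha without beta subunits, 23-25° C, holding −100 mV; bath Na⁺ reduced to 20 mM, CsF-based intracellular pH 7.4. Test compound 1 μM; tonic block at 0.1 Hz, use-dependent block at 3 Hz, % peak block after rundown correction.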
wild-type human cardiac sodium channel, hNav1.5 (peak INa), sequence (Q14524 whole entry): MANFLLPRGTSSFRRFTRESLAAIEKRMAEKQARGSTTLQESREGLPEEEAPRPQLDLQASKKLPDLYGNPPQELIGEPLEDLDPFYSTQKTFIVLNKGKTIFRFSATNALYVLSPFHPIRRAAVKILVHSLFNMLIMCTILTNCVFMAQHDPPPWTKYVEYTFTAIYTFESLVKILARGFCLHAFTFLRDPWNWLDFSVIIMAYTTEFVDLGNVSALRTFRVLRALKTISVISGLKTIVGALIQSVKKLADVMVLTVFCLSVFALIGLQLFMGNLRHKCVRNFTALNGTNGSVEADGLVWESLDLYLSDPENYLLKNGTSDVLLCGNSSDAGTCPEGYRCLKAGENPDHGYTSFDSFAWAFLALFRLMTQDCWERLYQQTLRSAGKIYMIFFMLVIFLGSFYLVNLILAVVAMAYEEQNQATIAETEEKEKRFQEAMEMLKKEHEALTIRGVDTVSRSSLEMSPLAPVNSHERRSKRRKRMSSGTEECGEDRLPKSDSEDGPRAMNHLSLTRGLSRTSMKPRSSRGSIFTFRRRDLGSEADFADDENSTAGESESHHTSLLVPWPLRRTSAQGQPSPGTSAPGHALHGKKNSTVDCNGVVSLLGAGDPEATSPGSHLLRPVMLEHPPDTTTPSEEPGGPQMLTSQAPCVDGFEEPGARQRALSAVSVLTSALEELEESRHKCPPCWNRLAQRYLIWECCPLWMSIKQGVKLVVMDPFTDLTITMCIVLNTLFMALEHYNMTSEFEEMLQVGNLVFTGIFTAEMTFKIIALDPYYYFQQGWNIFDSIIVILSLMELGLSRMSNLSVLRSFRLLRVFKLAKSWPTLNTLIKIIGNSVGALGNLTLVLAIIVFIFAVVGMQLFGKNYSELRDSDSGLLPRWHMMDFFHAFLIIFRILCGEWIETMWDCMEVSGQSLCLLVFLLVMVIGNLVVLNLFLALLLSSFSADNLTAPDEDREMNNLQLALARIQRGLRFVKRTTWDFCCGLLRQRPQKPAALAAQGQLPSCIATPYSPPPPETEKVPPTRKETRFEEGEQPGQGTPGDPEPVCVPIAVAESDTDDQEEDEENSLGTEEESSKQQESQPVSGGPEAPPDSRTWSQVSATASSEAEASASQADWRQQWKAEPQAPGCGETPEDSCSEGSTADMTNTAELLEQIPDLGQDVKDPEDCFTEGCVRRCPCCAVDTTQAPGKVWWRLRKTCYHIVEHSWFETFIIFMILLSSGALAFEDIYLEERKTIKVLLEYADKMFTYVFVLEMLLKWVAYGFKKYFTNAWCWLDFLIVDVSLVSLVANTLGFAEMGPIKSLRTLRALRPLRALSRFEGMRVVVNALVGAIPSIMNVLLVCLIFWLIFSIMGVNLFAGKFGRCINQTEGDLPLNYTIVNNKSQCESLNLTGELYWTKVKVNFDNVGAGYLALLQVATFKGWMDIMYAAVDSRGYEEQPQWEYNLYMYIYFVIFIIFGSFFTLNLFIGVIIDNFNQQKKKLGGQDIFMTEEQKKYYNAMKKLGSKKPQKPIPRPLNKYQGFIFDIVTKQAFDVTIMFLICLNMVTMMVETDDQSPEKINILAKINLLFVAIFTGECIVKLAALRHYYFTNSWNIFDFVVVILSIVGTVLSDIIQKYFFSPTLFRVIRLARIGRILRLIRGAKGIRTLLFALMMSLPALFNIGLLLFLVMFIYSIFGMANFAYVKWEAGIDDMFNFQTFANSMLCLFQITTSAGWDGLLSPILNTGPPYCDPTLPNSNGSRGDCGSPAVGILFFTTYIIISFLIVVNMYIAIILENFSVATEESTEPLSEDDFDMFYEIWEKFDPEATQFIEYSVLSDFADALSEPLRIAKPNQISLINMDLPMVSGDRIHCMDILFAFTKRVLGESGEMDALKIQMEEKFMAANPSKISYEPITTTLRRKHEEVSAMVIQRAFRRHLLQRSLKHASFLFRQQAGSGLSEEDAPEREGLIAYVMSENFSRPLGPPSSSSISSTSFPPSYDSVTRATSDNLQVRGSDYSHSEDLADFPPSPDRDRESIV

For series [2], the target named is wild-type human cardiac sodium channel, hNav1.5 (late INa) (Homo sapiens, UniProt Q14524). In words: Late INa screening assay (QPatch whole cell patch clamp). The class given is cell-based. In a few lines:
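Compounds tested at 1 μM final in extracellular solution against tefluthrin (10 μM)-enhanced late current. Automated patch clamp (23-25° C) on HEK293 expressing alpha subunit alone: −120 mV holding, 250 ms depolarization to −20 mV every 10 s. Read-out is percent inhibition of mean current over 225–250 ms.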
A general note: Patch clamp records ionic current or voltage across a cell membrane.

Series [3] can be described thus: Microsomal stability assay, rat. As to conditions: metabolic stability, rat liver microsomes 0.5 mg/mL, substrate 3 uM. The class given is in vitro ADME. In a few lines:
(§1)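 Liver microsomes at 0.5 mg/mL protein in 100 mM KPO4 buffer, incubated with 3 uM compound and NADPH-regenerating system, run in duplicate. Samples taken at 2, 12, 25, 45 and 65 min and quenched in MeOH/ACN/water before analysis.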

Series [4] is described as follows: Microsomal stability assay, dog. The series is classed as in vitro ADME. As to conditions: metabolic stability, dog liver microsomes 0.5 mg/mL, substrate 3 uM. In a few lines: as §1
Series [5] is described as follows: Microsomal stability assay, human. The conditions noted are these: metabolic stability, human liver microsomes 0.5 mg/mL, substrate 3 uM. The class given is in vitro ADME. In a few lines:
as §1
A general note: Liver microsomes are a subcellular fraction often used to study metabolism.

Where [6] appears, read: tonic block of peak INa, 0.1 Hz, 1 μM, read-out: Peak TB 1 μM.
[7] abbreviates: use-dependent block of peak INa, 3 Hz, 1 μM, read-out: Peak UDB 1 μM.
Setting [8] is: percent block of late INa, compound at 1 μM, 10 μM Tefluthrin, HEK293 hNav1.5, read-out: Late INa 1 μM.

wild-type human cardiac sodium channel, hNav1.5 (late INa), sequence (Q14524 whole entry): as above

Take `Cc1coc(Cn2nnc3ccc(-c4ccc(OC(F)(F)F)cc4)cc3c2=O)n1` [II-97, 3-((4-methyloxazol-2-yl)methyl)-6-(4-(trifluoromethoxy)phenyl)benzo[d][1,2,3]triazin-4(3H)-one]: the inhibition at 1 µM came to 12% in series [1] (setting [6]), 7% in series [1] (setting [7]) and 54% in series [2] (setting [8]). In addition, the MS Rat THalf in series [3] worked out at 24 min. The compound further returned an MS Dog THalf in series [4] of 63 min. Moreover, in series [5], the MS Human THalf was determined as 206 min.

Turning to `Cc1nc(Cn2nnc3ccc(-c4ccc(OC(F)(F)F)cc4)cc3c2=O)co1` [II-99, 3-((2-methyloxazol-4-yl)methyl)-6-(4-(trifluoromethoxy)phenyl)benzo[d][1,2,3]triazin-4(3H)-one], the inhibition at 1 µM in series [1] (setting [6]) stood at 9%; in series [1] (setting [7]) it was 0%; in series [2] (setting [8]), 47%. For the same compound, the MS Rat THalf in series [3] amounted to 42 min. This compound came in with an MS Dog THalf in series [4] of 62 min. This compound yielded an MS Human THalf in series [5] of 128 min.

Regarding `O=c1c2cc(-c3ccc(OC(F)(F)F)cc3)ccc2nnn1Cc1coc(C2CC2)n1` [II-100, 3((2-cyclopropyloxazol-4-yl)methyl)-6-(4-(trifluoromethoxy)phenyl)benzo[d][1,2,3]triazin-4(3H)-one], the inhibition at 1 µM amounted to 15% in series [1] (setting [6]), 2% in series [1] (setting [7]) and 50% in series [2] (setting [8]). The MS Rat THalf in series [3] stood at 35 min. Further, the MS Dog THalf in series [4] came out at 76 min. In series [5], the MS Human THalf was determined as 52 min.

On to `O=c1c2cc(-c3ccc(OC(F)(F)F)cc3)ccc2cnn1Cc1nccc(C2CC2)n1` [III-23, 2-((4-cyclopropylpyrimidin-2-yl)methyl)-7-(4-(trifluoromethoxy)phenyl)phthalazin-1 (2H)-one], for which the inhibition at 1 µM in series [1] (setting [6]) came out at 6%; in series [1] (setting [7]), 12%; in series [2] (setting [8]), 51%. Also, the MS Rat THalf in series [3] was 42 min. This compound also had an MS Dog THalf in series [4] of 209 min. Further, the MS Human THalf in series [5] is 254 min.

Take `O=c1c2cc(-c3ccc(OC(F)(F)F)cc3)ccc2cnn1Cc1nccc(OCC2CC2)n1` [III-27, 2((4-(cyclopropylmethoxy)pyrimidin-2-yl)methyl)-7-(4-(trifluoromethoxy)phenyl)phthalazin-1 (2H)-one]: the values for the inhibition at 1 µM in series [1] (setting [6]), in series [1] (setting [7]) and in series [2] (setting [8]) were 15%, 15% and 52%, respectively. This compound displayed an MS Rat THalf in series [3] of 43 min. This compound also showed an MS Dog THalf in series [4] of 83 min. This compound registered an MS Human THalf in series [5] of 268 min.

With `O=c1c2cc(-c3ccc(OC(F)(F)F)cc3)ccc2cnn1CCOc1nccc(C2CC2)n1` [III-29, 2-(2-(4-cyclopropylpyrimidin-2-yloxy)ethyl)-7-(4-(trifluoromethoxy)phenyl)phthalazin-1 (2H)-one], the inhibition at 1 µM came to 10% in series [1] (setting [6]), 9% in series [1] (setting [7]) and 58% in series [2] (setting [8]). In series [3], this compound came in with an MS Rat THalf of 26 min. In addition, the MS Dog THalf in series [4] is 18 min. In series [5], the MS Human THalf is 19 min.

With `COc1ccnc(Cn2ncc3ccc(-c4ccc(OC(F)(F)F)cc4)cc3c2=O)n1` [III-30, 2-((4-methoxypyrimidin-2-yl)methyl)-7-(4-(trifluoromethoxy)phenyl)phthalazin-1 (2H)-one], the inhibition at 1 µM in series [1] (setting [6]) came to 11%; in series [1] (setting [7]) it was 12%; in series [2] (setting [8]) it was 56%. Further, the MS Rat THalf in series [3] was 70 min. The MS Dog THalf in series [4] was found to be 167 min. In series [5], this compound had an MS Human THalf of 205 min.

Take `Cc1ccnn1CCn1ncc2ccc(-c3ccc(OC(F)(F)F)cc3)cc2c1=O` [III-32, 2-(2-(5-methyl-1H-pyrazol-1-yl)ethyl)-7-(4-(trifluoromethoxy)phenyl)phthalazin-1 (2H)-one]: the inhibition at 1 µM came out at 18% in series [1] (setting [6]), 23% in series [1] (setting [7]) and 53% in series [2] (setting [8]). For the same compound, the MS Rat THalf in series [3] amounted to 12 min. This compound also had an MS Dog THalf in series [4] of 16 min. The MS Human THalf in series [5] stood at 20 min.

Turning to `O=c1c2cc(-c3ccc(OC(F)(F)F)cc3)ccc2cnn1CCOc1ncc(Cl)cn1` [III-37, 2-(2-(5-chloropyrimidin-2-yloxy)ethyl)-7-(4-(trifluoromethoxy)phenyl)phthalazin-1 (2H)-one], the inhibition at 1 µM in series [1] (setting [6]) was determined as 7%; in series [1] (setting [7]), 4%; in series [2] (setting [8]) it was 50%. Further, in series [3], the MS Rat THalf was 96 min. The same compound registered an MS Dog THalf in series [4] of 37 min. In series [5], this compound came in with an MS Human THalf of 157 min.

`CC(Cn1ncc2ccc(-c3ccc(OC(F)(F)F)cc3)cc2c1=O)n1cccn1` (stereo not drawn) [III-38, 2-(2-(1H-pyrazol-1-yl)propyl)-7-(4-(trifluoromethoxy)phenyl)phthalazin-1 (2H)-one]: the inhibition at 1 µM in series [1] (setting [6]) worked out at 9%; in series [1] (setting [7]), 11%; in series [2] (setting [8]) it was 52%. This compound also registered an MS Rat THalf in series [3] of 24 min. In series [4], this compound returned an MS Dog THalf of 31 min. The compound further showed an MS Human THalf in series [5] of 54 min.

`O=c1c2cc(-c3ccc(OC(F)(F)F)cc3)ccc2cnn1CCOc1cnccn1` [III-39, 2-(2-(pyrazin-2-yloxy)ethyl)-7-(4-(trifluoromethoxy)phenyl)phthalazin-1 (2H)-one]: the inhibition at 1 µM in series [1] (setting [6]) was 7%; in series [1] (setting [7]), 0%; in series [2] (setting [8]), 47%. Further, the MS Rat THalf in series [3] stood at 30 min. For the same compound, the MS Dog THalf in series [4] was 14 min. The same compound registered an MS Human THalf in series [5] of 44 min.

Turning to `O=c1c2cc(-c3ccc(OC(F)(F)F)cc3)ccc2cnn1CCOc1ccccn1` [III-40, 2-(2-(pyridin-2-yloxy)ethyl)-7-(4-(trifluoromethoxy)phenyl)phthalazin-1 (2H)-one], the values for the inhibition at 1 µM in series [1] (setting [6]), in series [1] (setting [7]) and in series [2] (setting [8]) were 4%, 2% and 51%, respectively. In series [3], this compound yielded an MS Rat THalf of 62 min. Moreover, the MS Dog THalf in series [4] worked out at 56 min. Also, the MS Human THalf in series [5] came out at 152 min.

With `O=C(c1ccccn1)N1CCc2ccc(-c3ccc(C(F)(F)F)cc3)cc2C1` [IX-6, pyridin-2-yl(7-(4-(trifluoromethyl)phenyl)-3,4-dihydroisoquinolin-2(1H)-yl)methanone], the values for the inhibition at 1 µM in series [1] (setting [6]), in series [1] (setting [7]) and in series [2] (setting [8]) were 28%, 37% and 62%, respectively. Further, the MS Rat THalf in series [3] was found to be 272 min. In addition, the MS Dog THalf in series [4] is 313 min. The compound also registered an MS Human THalf in series [5] of 54 min.

On to `O=C(c1ncccn1)N1CCc2ccc(-c3ccc(OC(F)(F)F)cc3)cc2C1` [IX-11, pyrimidin-2-yl(7-(4-(trifluoromethoxy)phenyl)-3,4-dihydroisoquinolin-2(1H)-yl)methanone], for which the inhibition at 1 µM amounted to 17% in series [1] (% inhibition at 1 μM, tonic block, read-out: NAv1.5*-PEAK-TB-); 22% in series [1] (% inhibition at 1 μM, use-dependent block 3 Hz, read-out: NAv1.5*-PEAK-UDB-3 HZ-); 17% in series [1] (setting [6]); 22% in series [1] (setting [7]); 44% in series [2] (% inhibition at 1 μM, read-out: NAv1.5*-LATE-); 44% in series [2] (setting [8]). The MS Rat THalf in series [3] amounted to 348 min. For the same compound, the MS Dog THalf in series [4] is 332 min. In addition, in series [5], the MS Human THalf was found to be 145 min.
